Molecular target: T1, LXRβ (Homo sapiens, UniProt P55055)
T1 sequence (P55055 222-460 limits assumed): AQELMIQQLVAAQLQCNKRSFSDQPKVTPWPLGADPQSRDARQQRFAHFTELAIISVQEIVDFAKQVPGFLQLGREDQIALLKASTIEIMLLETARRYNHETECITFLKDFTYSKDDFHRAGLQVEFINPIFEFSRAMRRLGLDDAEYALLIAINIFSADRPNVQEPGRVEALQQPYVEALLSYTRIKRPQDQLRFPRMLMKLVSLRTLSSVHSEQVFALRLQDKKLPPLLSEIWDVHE
Assay: SPR
Type: binding

O=C(O)c1cc(O)c2c(c1)C(=O)c1cccc(O)c1C2=O [RH, 4,5-dihydroxyanthraquinone-2-carboxylic acid]
Kd: 32 µM

Reference: PMC3492795 (International Journal of Biological Sciences, 2012)
